pIC50: −log10 of the molar value.
target: T1, TRKA (Homo sapiens, UniProt P04629); experiment: Isolated TRK enzyme assay (HTRF KinEASE-TK kit, PV3144 TrkA enzyme assay); format: biochemical; details: recombinant His-tagged cytoplasmic domain aa 441-796, 4 nM enzyme, 40 uM ATP, 35 min, arithmetic mean where more than one reading
T1 construct: aa 441-; 4 nM; 40 uM; 35 min; (NTRK1); 796; His; purchased Invitrogen PV3144
Experimental: Isolated TRK Enzyme assays use the HTRF KinEASE-TK kit (Cisbio Cat#62TKOPEJ) with recombinant His-tagged cytoplasmic domains of TRKA receptor sourced from Invitrogen (see table below). This activity-assay measures the phosphorylation of tyrosine residues within a substrate from the HTRF kit which has been validated by Cisbio for a variety of tyrosine kinases including the TRK receptors.
0.5 mM stock solutions of test compounds are prepared and serially diluted in 100% DMSO. […] Greiner low volume black plates containing 0.2 ul of serially diluted compound, standard and HPE/ZPE are created using the Bravo nanolitre dispenser. 1× enzyme buffer is prepared from 5× Enzymatic Buffer from the Cisbio KinEASE TK kit using MilliQ water. The buffer is then supplemented with 10 mM MgCl and 2 mM DTT (both from Sigma). […] 2×FAC of enzyme and 2×FAC ATP diluted in 1× complete enzyme buffer is incubated at room temperature for 20 minutes to preactivate the enzyme. Following this preactivation step, 5 ul/well of enzyme+ATP mix is added using a Multidrop Micro to the assay plate, spotted with 0.2 ul 100% DMSO compound. This is left for 20 mins at room temperature before adding 5 ul of 2 uM TK-substrate-Biotin (from the Cisbio kit) diluted in 1× enzyme buffer (1 uM FAC) using the Multidrop Micro. The reaction is incubated at room temperature for the optimized assay reaction time (see table).
After the Detection Reagent addition, plates are covered and incubated at room temperature for 60 minutes. HTRF signal is read using an Envision reader, measured as a ratio of emissions at two different wavelengths, 620 nm and 665 nm. […] Test compound data are expressed as percentage inhibition defined by HPE and ZPE values for each plate.
Percentage inhibition in the presence of test compound is plotted against compound concentration on a log scale to determine an IC50 from the resultant sigmoid curve. Cell Based Assays were carried out using Cell lines from DiscoveRx utilising their PathHunter technology and reagents in an antagonist assay:
Where more than one reading was taken, the arithmetic mean is presented.

T1 sequence (P04629 441-796): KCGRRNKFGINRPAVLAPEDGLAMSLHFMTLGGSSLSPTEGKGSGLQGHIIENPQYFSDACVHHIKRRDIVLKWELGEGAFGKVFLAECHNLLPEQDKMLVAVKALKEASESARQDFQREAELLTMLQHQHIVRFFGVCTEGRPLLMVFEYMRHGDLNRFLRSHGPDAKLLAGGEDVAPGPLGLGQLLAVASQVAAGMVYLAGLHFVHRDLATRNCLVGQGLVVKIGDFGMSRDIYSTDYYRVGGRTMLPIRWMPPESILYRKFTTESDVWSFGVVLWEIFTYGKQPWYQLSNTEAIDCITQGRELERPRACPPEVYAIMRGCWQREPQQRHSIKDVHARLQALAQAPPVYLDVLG

| SMILES | pIC50 |
| --- | --- |
| CC(C)(O)CNC(=O)c1cnc(N)c(OC2CN(C(=O)Cc3ccc(OC(F)(F)F)cc3)CC2(F)F)c1 (racemic) [Example 10, (S)-6-amino-5-[(4,4-difluoro-1-{[4-(trifluoromethoxy)phenyl]acetyl}pyrrolidin-3-yl)oxy]-N-(2-hydroxy-2-methylpropyl)pyridine-3-carboxamide] | 5.06 |
| NC(=O)c1cnc(N)c(OCC2CN(C(=O)Cc3ccc(OC(F)(F)F)cc3)CC2(F)F)c1 (racemic) [Example 13, Racemic-6-amino-5-[(4,4-difluoro-1-{[4-(trifluoromethoxy)phenyl]acetyl}pyrrolidin-3-yl)methoxy]pyridine-3-carboxamide] | 7.52 |
| CNC(=O)c1cnc(N)c(OC2CN(C(=O)Cc3ccc(OC(F)(F)F)cc3)CC2(C)OC)c1 (racemic) [Example 24, Racemic-6-amino-5-[(4-methoxy-4-methyl-1-{[4-(trifluoromethoxy)phenyl]acetyl}pyrrolidin-3-yl)oxy]-N-methylpyridine-3-carboxamide] | 7.26 |
| CCN(CC)C(=O)c1cnc(N)c(OC2CN(C(=O)Cc3ccc(OC(F)(F)F)cc3)CC2(C)OC)c1 (racemic) [Example 25, Racemic-6-amino-N,N-diethyl-5-[(4-methoxy-4-methyl-1-{[4-(trifluoromethoxy)phenyl]acetyl}pyrrolidin-3-yl)oxy]pyridine-3-carboxamide] | 6.89 |
| NC(=O)c1cnc(N)c(COC2CN(C(=O)Cc3ccc(OC(F)(F)F)cc3)CC2(F)F)c1 (single isomer, unassigned) [Example 5] | 7.97 |
| NC(=O)c1cnc(N)c(COC2CN(C(=O)Cc3ccc(OC(F)(F)F)cc3)CC2(F)F)c1 (single isomer, unassigned) [Example 6] | 6.20 |
| Nc1ncc(C(=O)NCCO)cc1OC1CN(C(=O)Cc2ccc(OC(F)(F)F)cc2)CC1(F)F (single isomer, unassigned) [Example 8] | 6.83 |
| CNC(=O)c1cnc(N)c(OCC2CN(C(=O)Cc3ccc(OC(F)(F)F)cc3)CC2(F)F)c1 (single isomer, unassigned) [Example 11] | 7.94 |
| CNC(=O)c1cnc(N)c(OCC2CN(C(=O)Cc3ccc(OC(F)(F)F)cc3)CC2(F)F)c1 (single isomer, unassigned) [Example 12] | 5.90 |
| NC(=O)c1cnc(N)c(OCC2CN(C(=O)Cc3ccc(OC(F)(F)F)cc3)CC2(F)F)c1 (single isomer, unassigned) [Example 15] | 7.80 |
| CNC(=O)c1cnc(N)c(OC2CN(C(=O)Cc3ccc(OC(F)(F)F)cc3)CC23CC3)c1 (stereo not drawn) [Example 16, 6-amino-N-methyl-5-[(5-{[4-(trifluoromethoxy)phenyl]acetyl}-5-azaspiro[2.4]hept-7-yl)oxy]pyridine-3-carboxamide] | 7.14 |
| CNC(=O)c1cnc(N)c(O[C@H]2CN(C(=O)Cc3ccc(OC(F)(F)F)cc3)C[C@@H]2C)c1 [Example 17, (3R,4S)-6-amino-N-methyl-5-[(4-methyl-1-{[4-(trifluoromethoxy)phenyl]acetyl}pyrrolidin-3-yl)oxy]pyridine-3-carboxamide] | 6.98 |
| NC(=O)c1cnc(N)c(OC2CN(C(=O)Cc3ccc(OC(F)(F)F)cc3)CC23CC3)c1 (stereo not drawn) [Example 18, 6-amino-5-[(5-{[4-(trifluoromethoxy)phenyl]acetyl}-5-azaspiro[2.4]hept-7-yl)oxy]pyridine-3-carboxamide] | 6.96 |
| CC1(C)CN(C(=O)Cc2ccc(OC(F)(F)F)cc2)C[C@@H]1Oc1cc(C(N)=O)cnc1N [Example 19, (R)-6-amino-5-[(4,4-dimethyl-1-{[4-(trifluoromethoxy)phenyl]acetyl}pyrrolidin-3-yl)oxy]pyridine-3-carboxamide] | 7.93 |
| CNC(=O)c1cnc(N)c(O[C@H]2CN(C(=O)Cc3ccc(OC(F)(F)F)cc3)CC2(C)C)c1 [Example 20, (R)-6-amino-5-[(4,4-dimethyl-1-{[4-(trifluoromethoxy)phenyl]acetyl}pyrrolidin-3-yl)oxy]-N-methylpyridine-3-carboxamide] | 7.91 |
| CCNC(=O)c1cnc(N)c(O[C@H]2CN(C(=O)Cc3ccc(OC(F)(F)F)cc3)C[C@@H]2C)c1 [Example 21, (3R,4S)-6-amino-N-ethyl-5-[(4-methyl-1-{[4-(trifluoromethoxy)phenyl]acetyl}pyrrolidin-3-yl)oxy]pyridine-3-carboxamide] | 6.90 |
| C[C@H]1CN(C(=O)Cc2ccc(OC(F)(F)F)cc2)C[C@@H]1Oc1cc(C(=O)NCC#N)cnc1N [Example 22, (3R,4S)-6-amino-N-(cyanomethyl)-5-[(4-methyl-1-{[4-(trifluoromethoxy)phenyl]acetyl}pyrrolidin-3-yl)oxy]pyridine-3-carboxamide] | 6.48 |
| C[C@H]1CN(C(=O)Cc2ccc(OC(F)(F)F)cc2)C[C@@H]1Oc1cc(C(=O)NCC(C)(C)O)cnc1N [Example 23, (3R,4S)-6-amino-N-(2-hydroxy-2-methylpropyl)-5-[(4-methyl-1-{[4-(trifluoromethoxy)phenyl]acetyl}pyrrolidin-3-yl)oxy]pyridine-3-carboxamide] | 5.68 |
